Results on 23 molecules are retold here after patent US20230279025A1, “KRAS G12D INHIBITORS” (Mirati Therapeutics, Inc., priority 2020, published 2023).

Some results are limits rather than exact numbers.

Assay [1] concerns the target T1, KRas G12D (Homo sapiens (Human), UniProt P01116, G12D). Description: KRas G12D Surface Plasmon Resonance (SPR) Binding Assay. The following applies: Biacore T200, immobilized biotinylated KRAS protein, 1:1 binding model.
Target sequence in this assay (P01116-2 other isoform, or with tags, fused parts or gaps G12D): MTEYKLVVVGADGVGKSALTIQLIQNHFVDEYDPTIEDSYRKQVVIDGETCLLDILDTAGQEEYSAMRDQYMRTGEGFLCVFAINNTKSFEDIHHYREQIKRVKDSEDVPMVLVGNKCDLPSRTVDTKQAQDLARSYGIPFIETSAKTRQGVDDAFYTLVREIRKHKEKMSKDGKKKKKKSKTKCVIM
Assay [2] has as its target T1, KRas G12D. Description: KRas G12D Binding Assay (TR-FRET displacement of Cy5 labelled tracer). The following applies: GDP-loaded KRAS G12D (amino acids 1:169), 60 minute incubation at 22° C. Here is the method: After a 60 minute incubation at 22° C., the reaction was measured using a PerkinElmer EnVision multimode plate reader via TR-FRET dual wavelength detection, and the percent of control (POC) calculated using a ratiometric emission factor. […] The POC values were fit to a 4-parameter logistic curve and the IC50 value was determined as the concentration where the curve crosses 50 POC.
ND stands for “not determined.”
Target sequence in this assay (P01116 other isoform, or with tags, fused parts or gaps G12D): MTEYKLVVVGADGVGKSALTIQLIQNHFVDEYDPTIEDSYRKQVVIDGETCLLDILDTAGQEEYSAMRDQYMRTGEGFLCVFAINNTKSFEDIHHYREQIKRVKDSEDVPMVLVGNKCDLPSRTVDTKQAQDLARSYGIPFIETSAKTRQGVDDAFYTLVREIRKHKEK

At KRas G12D [1], `OCCOc1nc(N2C[C@H]3CC[C@@H](C2)N3)c2cnc(-c3cc(O)cc4ccccc34)c(F)c2n1` [Example 69, 4-(4-((1R,5S)-3,8-diazabicyclo[3.2.1]octan-3-yl)-8-fluoro-2-(2-hydroxyethoxy)pyrido[4,3-d]pyrimidin-7-yl)naphthalen-2-ol] showed a dissociation constant (Kd) of 0.522 µM. At KRas G12D [2], the IC50 came out at 0.53 µM.

The molecule `COCCOc1nc(N2C[C@H]3CC[C@@H](C2)N3)c2cnc(-c3cc(O)cc4ccccc34)c(F)c2n1` [Example 70, 4-(4-((1R,5S)-3,8-diazabicyclo[3.2.1]octan-3-yl)-8-fluoro-2-(2-methoxyethoxy)pyrido[4,3-d]pyrimidin-7-yl)naphthalen-2-ol] displayed a Kd on KRas G12D [1] of 0.417 µM. This molecule also came in with an IC50 at KRas G12D [2] of 0.356 µM.

Turning to `O=S1(=O)CCC(Oc2nc(N3C[C@H]4CC[C@@H](C3)N4)c3cnc(-c4cc(O)cc5ccccc45)c(F)c3n2)CC1` [Example 71, 4-((4-((1R,5S)-3,8-diazabicyclo[3.2.1]octan-3-yl)-8-fluoro-7-(3-hydroxynaphthalen-1-yl)pyrido[4,3-d]pyrimidin-2-yl)oxy)tetrahydro-2H-thiopyran 1,1-dioxide], the dissociation constant Kd on KRas G12D [1] came out at 0.138 µM. For the same molecule, the IC50 at KRas G12D [2] is 0.126 µM.

Molecule `Oc1cc(-c2ncc3c(N4C[C@H]5CC[C@@H](C4)N5)nc(OC4CCOCC4)nc3c2F)c2ccccc2c1` [Example 72, 4-(4-((1R,5S)-3,8-diazabicyclo[3.2.1]octan-3-yl)-8-fluoro-2-((tetrahydro-2H-pyran-4-yl)oxy)pyrido[4,3-d]pyrimidin-7-yl)naphthalen-2-ol] had a Kd on KRas G12D [1] of 0.507 µM. At KRas G12D [2], this molecule yielded an IC50 of 0.513 µM.

In the case of `Oc1cc(-c2ncc3c(N4C[C@H]5CC[C@@H](C4)N5)nc(OCC4CCCC4)nc3c2F)c2ccccc2c1` [Example 73, 4-(4-((1R,5S)-3,8-diazabicyclo[3.2.1]octan-3-yl)-2-(cyclopentylmethoxy)-8-fluoropyrido[4,3-d]pyrimidin-7-yl)naphthalen-2-ol], the Kd at KRas G12D [1] was found to be 667 µM. This molecule also yielded an IC50 at KRas G12D [2] of 0.573 µM.

For the molecule `Oc1cc(-c2ncc3c(N4C[C@H]5CC[C@@H](C4)N5)nc(N4CC5(CCOCC5)C4)nc3c2F)c2ccccc2c1` [Example 74, 4-(4-((1R,5S)-3,8-diazabicyclo[3.2.1]octan-3-yl)-8-fluoro-2-(7-oxa-2-azaspiro[3.5]nonan-2-yl)pyrido[4,3-d]pyrimidin-7-yl)naphthalen-2-ol], the Kd on KRas G12D [1] came out at 0.141 µM. The IC50 on KRas G12D [2] came to 0.188 µM.

On KRas G12D [1], `OCCCOc1nc(N2C[C@H]3CC[C@@H](C2)N3)c2cnc(-c3cc(O)cc4ccccc34)c(F)c2n1` [Example 75, 4-(4-((1R,5S)-3,8-diazabicyclo[3.2.1]octan-3-yl)-8-fluoro-2-(3-hydroxypropoxy)pyrido[4,3-d]pyrimidin-7-yl)naphthalen-2-ol] gave an equilibrium dissociation constant (Kd) of 0.304 µM. For the same molecule, the IC50 at KRas G12D [2] was determined as 0.24 µM.

In turn, `Oc1cc(-c2ncc3c(N4C[C@H]5CC[C@@H](C4)N5)nc(N4CC5(CCOC5)C4)nc3c2F)c2ccccc2c1` [Example 76, 4-(4-((1R,5S)-3,8-diazabicyclo[3.2.1]octan-3-yl)-8-fluoro-2-(6-oxa-2-azaspiro[3.4]octan-2-yl)pyrido[4,3-d]pyrimidin-7-yl)naphthalen-2-ol] registered a Kd at KRas G12D [1] of 0.197 µM. At KRas G12D [2], this molecule gave an IC50 of 0.131 µM.

With `OC[C@@H]1CCCN1c1nc(N2C[C@H]3CC[C@@H](C2)N3)c2cnc(-c3cc(O)cc4ccccc34)c(F)c2n1` [Example 77, 4-(4-((1R,5S)-3,8-diazabicyclo[3.2.1]octan-3-yl)-8-fluoro-2-((S)-2-(hydroxymethyl)pyrrolidin-1-yl)pyrido[4,3-d]pyrimidin-7-yl)naphthalen-2-ol], on KRas G12D [1], the Kd stood at 3.07 µM. Moreover, the IC50 at KRas G12D [2] came out at 3.14 µM.

Turning to `CC(=O)N1CCC(Oc2nc(N3C[C@H]4CC[C@@H](C3)N4)c3cnc(-c4cc(O)cc5ccccc45)c(F)c3n2)CC1` [Example 78, 1-(4-((4-((1R,5S)-3,8-diazabicyclo[3.2.1]octan-3-yl)-8-fluoro-7-(3-hydroxynaphthalen-1-yl)pyrido[4,3-d]pyrimidin-2-yl)oxy)piperidin-1-yl)ethan-1-one], the Kd on KRas G12D [1] was found to be 0.367 µM. At KRas G12D [2], this molecule gave an IC50 of 0.358 µM.

Consider `Oc1cc(-c2ncc3c(N4C[C@H]5CC[C@@H](C4)N5)nc(OC4CCSCC4)nc3c2F)c2ccccc2c1` [Example 79, 4-(4-((1R,5S)-3,8-diazabicyclo[3.2.1]octan-3-yl)-8-fluoro-2-((tetrahydro-2H-thiopyran-4-yl)oxy)pyrido[4,3-d]pyrimidin-7-yl)naphthalen-2-ol], for which, on KRas G12D [1], the Kd was greater than 1000 µM. At KRas G12D [2], this molecule showed an IC50 of 0.337 µM.

At KRas G12D [1], `Oc1cc(-c2ncc3c(N4C[C@H]5CC[C@@H](C4)N5)nc(OC4CCC(F)(F)CC4)nc3c2F)c2ccccc2c1` [Example 80, 4-(4-((1R,5S)-3,8-diazabicyclo[3.2.1]octan-3-yl)-2-((4,4-difluorocyclohexyl)oxy)-8-fluoropyrido[4,3-d]pyrimidin-7-yl)naphthalen-2-ol] came in with a Kd greater than 500 µM. On KRas G12D [2], this molecule yielded an IC50 of 0.647 µM.

Molecule `Oc1cc(-c2ncc3c(N4C[C@H]5CC[C@@H](C4)N5)nc(OCCC(F)(F)F)nc3c2F)c2ccccc2c1` [Example 81, 4-(4-((1R,5S)-3,8-diazabicyclo[3.2.1]octan-3-yl)-8-fluoro-2-(3,3,3-trifluoropropoxy)pyrido[4,3-d]pyrimidin-7-yl)naphthalen-2-ol] yielded a Kd at KRas G12D [1] of 0.321 µM. The IC50 on KRas G12D [2] came out at 0.153 µM.

On KRas G12D [1], `[O-][S+]1CCC(Oc2nc(N3C[C@H]4CC[C@@H](C3)N4)c3cnc(-c4cc(O)cc5ccccc45)c(F)c3n2)CC1` (stereo partly drawn) [Example 82, 4-((4-((1R,5S)-3,8-diazabicyclo[3.2.1]octan-3-yl)-8-fluoro-7-(3-hydroxynaphthalen-1-yl)pyrido[4,3-d]pyrimidin-2-yl)oxy)tetrahydro-2H-thiopyran 1-oxide] displayed an equilibrium dissociation constant (Kd) of 0.215 µM. For the same molecule, the concentration for half-maximal inhibition (IC50) at KRas G12D [2] was 0.227 µM.

Turning to `Cc1nccn1CCOc1nc(N2CC3CCC(C2)N3)c2cnc(-c3cc(O)cc4ccccc34)c(F)c2n1` [Example 84, 4-(4-((1R,5S)-3,8-diazabicyclo[3.2.1]octan-3-yl)-8-fluoro-2-(2-(2-methyl-1H-imidazol-1-yl)ethoxy)pyrido[4,3-d]pyrimidin-7-yl)naphthalen-2-ol], binding on KRas G12D [1] was put at a Kd of 0.0144 µM. Besides, the IC50 at KRas G12D [2] stood at 0.0317 µM.

In the case of `CC(C)Cn1ccnc1CCOc1nc(N2C[C@H]3CC[C@@H](C2)N3)c2cnc(-c3cc(O)cc4ccccc34)c(F)c2n1` [Example 85, 4-(4-((1R,5S)-3,8-diazabicyclo[3.2.1]octan-3-yl)-8-fluoro-2-(2-(1-isobutyl-1H-imidazol-2-yl)ethoxy)pyrido[4,3-d]pyrimidin-7-yl)naphthalen-2-ol], the Kd on KRas G12D [1] amounted to 0.148 µM. In addition, on KRas G12D [2], the IC50 turned out to be 0.454 µM.

For `COc1ccc(CCOc2nc(N3C[C@H]4CC[C@@H](C3)N4)c3cnc(-c4cccc5cccc(Cl)c45)c(F)c3n2)cn1` [Example 86, 4-((1R,5S)-3,8-diazabicyclo[3.2.1]octan-3-yl)-7-(8-chloronaphthalen-1-yl)-8-fluoro-2-(2-(6-methoxypyridin-3-yl)ethoxy)pyrido[4,3-d]pyrimidine], at KRas G12D [1], the Kd turned out to be 528 µM. Besides, at KRas G12D [2], the IC50 turned out to be 7.92 µM.

As to `Cc1cccc(CCOc2nc(N3C[C@H]4CC[C@@H](C3)N4)c3cnc(-c4cc(O)cc5ccccc45)c(F)c3n2)n1` [Example 87, 4-(4-((1R,5S)-3,8-diazabicyclo[3.2.1]octan-3-yl)-8-fluoro-2-(2-(6-methylpyridin-2-yl)ethoxy)pyrido[4,3-d]pyrimidin-7-yl)naphthalen-2-ol], at KRas G12D [1], the Kd came to 0.196 µM. Moreover, on KRas G12D [2], the IC50 stood at 0.536 µM.

With `Cc1ccc2[nH]ncc2c1-c1ncc2c(N3C[C@H]4CC[C@@H](C3)N4)nc(OCCc3nccn3C)nc2c1F` [Example 88, 4-((1R,5S)-3,8-diazabicyclo[3.2.1]octan-3-yl)-8-fluoro-2-(2-(1-methyl-1H-imidazol-2-yl)ethoxy)-7-(5-methyl-1H-indazol-4-yl)pyrido[4,3-d]pyrimidine], the affinity at KRas G12D [1], expressed as Kd, was 15.6 µM. The molecule further showed an IC50 on KRas G12D [2] of 7.02 µM.

Take `Oc1cc(-c2ncc3c(N4C[C@H]5CC[C@@H](C4)N5)nc(OCc4ccccn4)nc3c2F)c2ccccc2c1` [Example 89, 4-(4-((1R,5S)-3,8-diazabicyclo[3.2.1]octan-3-yl)-8-fluoro-2-(pyridin-2-ylmethoxy)pyrido[4,3-d]pyrimidin-7-yl)naphthalen-2-ol]: on KRas G12D [1], the dissociation constant (Kd) is 4.31 µM. On KRas G12D [2], this molecule displayed a 50% inhibitory concentration (IC50) of 0.679 µM.

In the case of `Fc1ccc2cccc(-c3ncc4c(N5C[C@H]6CC[C@@H](C5)N6)nc(OCCc5cccnc5)nc4c3F)c2c1` [Example 90, 4-((1R,5S)-3,8-diazabicyclo[3.2.1]octan-3-yl)-8-fluoro-7-(7-fluoronaphthalen-1-yl)-2-(2-(pyridin-3-yl)ethoxy)pyrido[4,3-d]pyrimidine], the Kd at KRas G12D [1] is 7.81 µM. The same molecule yielded an IC50 on KRas G12D [2] of 4.49 µM.

Take `CC(C)n1ccnc1CCOc1nc(N2C[C@H]3CC[C@@H](C2)N3)c2cnc(-c3cc(O)cc4ccccc34)c(F)c2n1` [Example 91, 4-(4-((1R,5S)-3,8-diazabicyclo[3.2.1]octan-3-yl)-8-fluoro-2-(2-(1-isopropyl-1H-imidazol-2-yl)ethoxy)pyrido[4,3-d]pyrimidin-7-yl)naphthalen-2-ol]: at KRas G12D [1], the Kd is 0.0259 µM. The molecule also had a half-inhibitory concentration (IC50) on KRas G12D [2] of 0.0327 µM.

On KRas G12D [1], `Fc1c(-c2cccc3cccc(Cl)c23)ncc2c(N3C[C@H]4CC[C@@H](C3)N4)nc(OCCc3cn4ccccc4n3)nc12` [Example 92, 4-((1R,5S)-3,8-diazabicyclo[3.2.1]octan-3-yl)-7-(8-chloronaphthalen-1-yl)-8-fluoro-2-(2-(imidazo[1,2-a]pyridin-2-yl)ethoxy)pyrido[4,3-d]pyrimidine] came in with a Kd of 2.3 µM. On KRas G12D [2], this molecule displayed an IC50 of 1.35 µM.
